We go through 10 compounds from patent EP4603105A1, “PHARMACEUTICAL COMPOSITION CONTAINING CYCLIC COMPOUND HAVING SELECTIVE KRAS INHIBITORY EFFECT AGAINST HRAS AND NRAS” (CHUGAI SEIYAKU KABUSHIKI KAISHA, priority 2022, dated 2024).

Test [1] deals with GDP-bound NRAS wild-type protein (Homo sapiens, UniProt P01111). Nature of the test: Binding to NRAS by surface plasmon resonance (SPR), KD and KD ratio to KRAS. In short, it runs like this: (§1)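 Single-cycle kinetics on GDP-loaded biotin-Avi RAS captured to ~100–300 RU; 75 s ascending injections, 100 µL/min, 30°C. HBS pH 7.4 + 10 mM MgCl2/10 µM GDP/4% DMSO. 1:1 fit, KD.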
Sequence of GDP-bound NRAS wild-type protein (P01111 whole entry): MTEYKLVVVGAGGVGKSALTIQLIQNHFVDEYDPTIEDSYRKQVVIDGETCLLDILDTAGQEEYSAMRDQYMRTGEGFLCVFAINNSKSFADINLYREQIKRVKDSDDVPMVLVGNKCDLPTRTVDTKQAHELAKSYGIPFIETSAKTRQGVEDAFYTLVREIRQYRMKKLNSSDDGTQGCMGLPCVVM
The next test concerns the target HRAS wild-type protein (Homo sapiens, UniProt P01112). The experiment in a line: Binding to HRAS by surface plasmon resonance (SPR), KD and KD ratio to KRAS. In short, it runs like this:
as §1

The subject of test [2] is human lung cancer strain NCI-H441. It is filed as cell-based. In short, it runs like this:
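Proliferation was scored by […] measured after the reagent was added to cultures kept at 37°C in 5% carbon dioxide.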

The mark [3] stands for this setting: ratio of KD value for GDP-bound NRAS wild-type protein to KD value for KRAS (SPR).
Setting [4] is: ratio of KD value for HRAS wild-type protein to KD value for KRAS (SPR).
Where [5] appears, read: ratio of KD for GDP-bound NRAS wild-type protein to KD for KRAS.
Where [6] appears, read: ratio of KD for HRAS wild-type protein to KD for KRAS.
Where [7] appears, read: ratio of the KD value with respect to GDP-bound NRAS wild-type protein to the KD value with respect to KRAS.
[8] abbreviates: ratio of the KD value with respect to HRAS wild-type protein to the KD value with respect to KRAS.

Where a SMILES comes first, the peptide text is derived from it. Bridges are numbered along the chain shown (N, C = ends). [ ]: non-standard residue; d: D form. The star is where a group is joined. hPhe(3,5-F2-4-CF3) = N[C@@H](CCc1cc(F)c(C(F)(F)F)c(F)c1)C(=O)O; hPhe(3-Cl-4-CF3) = N[C@@H](CCc1ccc(C(F)(F)F)c(Cl)c1)C(=O)O; NPrPhe(4-CF3) = CCCN[C@@H](Cc1ccc(C(F)(F)F)cc1)C(=O)O; NMeGly(cPent) = CN[C@H](C(=O)O)C1CCCC1; Pro(4,4-F2) = O=C(O)[C@@H]1CC(F)(F)CN1; NMeGly(cBu) = CN[C@H](C(=O)O)C1CCC1; Hyp = O=C(O)[C@@H]1C[C@@H](O)CN1; NMeD = CN[C@@H](CC(=O)O)C(=O)O; NMeL = CN[C@@H](CC(C)C)C(=O)O; Morpholide = C1CN(*)CCO1; Ac5c = NC1(C(=O)O)CCCC1; Aze = O=C(O)[C@@H]1CCN1; Sar = CNCC(=O)O

Sequence of HRAS wild-type protein (P01112 whole entry): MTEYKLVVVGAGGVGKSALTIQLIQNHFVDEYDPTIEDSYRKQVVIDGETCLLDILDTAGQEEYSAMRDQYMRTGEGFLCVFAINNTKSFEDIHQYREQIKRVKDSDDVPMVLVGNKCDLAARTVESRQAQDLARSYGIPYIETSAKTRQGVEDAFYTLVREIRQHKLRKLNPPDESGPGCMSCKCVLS

As a reminder, the IC50 is the concentration that inhibits the measured activity by half. A lower IC50 goes with higher potency. In the case of `CC[C@H](C)[C@@H]1NC(=O)[C@H](CC2CC2)N(C)C(=O)C[C@@H](C(=O)N(C)C)N(C)C(=O)[C@H](C2CCCC2)N(C)C(=O)C2(CC(C)(C)C2)NC(=O)[C@@H]2C[C@@H](C(F)(F)F)CN2C(=O)[C@H](CCc2cc(F)c(C(F)(F)F)c(F)c2)NC(=O)CN(C)C(=O)[C@H](Cc2ccc(F)cc2)N2CC/C=C\C[C@@H](C2=O)N(C)C(=O)CN(C)C1=O` [PP1507], in test [1] (setting [3]), the “NRAS /KRAS” value is “A (a compound having 10 or more and less than 20 is denoted as A)”. Also, the “HRAS /KRAS” value on HRAS wild-type protein (setting [4]) is “A (a compound having 10 or more and less than 20 is denoted as A)”. The IC50 in test [2] is 16.2 nM.

Take `CCC[C@H]1C(=O)N[C@@H]([C@@H](C)CC)C(=O)N(C2CC2)CC(=O)N(C)[C@H]2C/C=C\CCN(C2=O)[C@@H](Cc2ccc(C(F)(F)F)cc2)C(=O)N(C)CC(=O)N[C@@H](CCc2cc(F)c(C(F)(F)F)c(F)c2)C(=O)N2C[C@H](OCC)C[C@H]2C(=O)N(C)C2(CCC2)C(=O)N(C)[C@@H](C2CCCC2)C(=O)N(C)[C@H](C(=O)N2CCCC2)CC(=O)N1C` [PP3112]: the “NRAS /KRAS” value in test [1] (setting [5]) is “A (a compound having 10 or more and less than 20 is denoted as A)”. The “HRAS /KRAS” value on HRAS wild-type protein (setting [6]) was “B (a compound having 3 or more and less than 10 is denoted as B)”. In test [2], this compound returned an IC50 of 32.4 nM.

Regarding `CCCN(C)C(=O)[C@@H]1CC(=O)N(C)[C@@H](CC(F)F)C(=O)N[C@@H]([C@@H](C)CC)C(=O)N(C)CC(=O)N(C)[C@H]2C/C=C\CCN(C2=O)[C@@H](Cc2ccc(C(F)(F)F)cc2)C(=O)N(C)CC(=O)N[C@@H](CCc2ccc(C(F)(F)F)c(OC)c2)C(=O)N2C[C@@H](C)C[C@H]2C(=O)NC2(CC(C)(C)C2)C(=O)N(C)[C@@H](C2CCCC2)C(=O)N1C` [PP1989], the “NRAS /KRAS” value in test [1] (setting [7]) was “A (a compound having 10 or more and less than 20 is denoted as A)”. In addition, the “HRAS /KRAS” value on HRAS wild-type protein (setting [8]) was “A (a compound having 10 or more and less than 20 is denoted as A)”. This compound also had an IC50 in test [2] of 11.1 nM.

Regarding `CCCN1C(=O)CN(C)C(=O)[C@@H]2CCN2C(=O)[C@H]([C@@H](C)CC)NC(=O)[C@H](CC(C)C)N(C)C(=O)C[C@@H](C(=O)N2CCOCC2)N(C)C(=O)[C@H](C2CCCC2)N(C)C(=O)C2(CCCC2)NC(=O)[C@@H]2C[C@@H](OCC)CN2C(=O)[C@H](CCc2ccc(C(F)(F)F)c(Cl)c2)NC(=O)CN(C)C(=O)[C@@H]1Cc1ccc(C(F)(F)F)cc1` [PP0310] ([NMeL]I[Aze][Sar][NPrPhe(4-CF3)][Sar][hPhe(3-Cl-4-CF3)][Hyp](Et)[Ac5c][NMeGly(cPent)][NMeD]-Morpholide; lactam N-11), the “NRAS /KRAS” value in test [1] (setting [5]) is “B (a compound having 3 or more and less than 10 is denoted as B)”. In addition, at HRAS wild-type protein (setting [6]), the “HRAS /KRAS” value is “C (A compound having a KD ratio of 0.1 or more and less than 3 is denoted as C)”. Besides, the IC50 in test [2] stood at 13.8 nM.

With `CCO[C@@H]1C[C@H]2C(=O)NC3(CC(F)(F)C3)C(=O)N(C)[C@@H](C(CC)CC)C(=O)N3CCC[C@@H]3CC(=O)N(C)[C@@H](CC)C(=O)N[C@@H]([C@@H](C)CC)C(=O)N(C)CC(=O)N(C)[C@H]3C/C=C\CCN(C3=O)[C@@H](Cc3ccc(C(F)(F)F)cc3)C(=O)N(C)CC(=O)N[C@@H](CCc3cc(F)c(C(F)(F)F)c(F)c3)C(=O)N2C1` [PP1608], the “NRAS /KRAS” value in test [1] (setting [3]) is “A (a compound having 10 or more and less than 20 is denoted as A)”. Further, at HRAS wild-type protein (setting [4]), the “HRAS /KRAS” value is “A (a compound having 10 or more and less than 20 is denoted as A)”. Further, it took 70.1 nM to reach half-maximal inhibition in test [2] (IC50).

For the compound `CCCN1C(=O)CN(C)C(=O)CN(C)C(=O)[C@H]([C@@H](C)CC)NC(=O)[C@H](CC(C)C)N(C)C(=O)C[C@@H](C(=O)N2CCOCC2)N(C)C(=O)[C@H](C2CCCC2)N(C)C(=O)C2(CCCC2)NC(=O)[C@@H]2CCCN2C(=O)[C@H](CCc2cc(F)c(C(F)(F)F)c(F)c2)NC(=O)CN(C)C(=O)[C@@H]1Cc1ccc(C(F)(F)F)cc1` [PP0753] ([NMeL]I[Sar][Sar][NPrPhe(4-CF3)][Sar][hPhe(3,5-F2-4-CF3)]P[Ac5c][NMeGly(cPent)][NMeD]-Morpholide; lactam N-11), the “NRAS /KRAS” value in test [1] (setting [7]) is “B (a compound having 3 or more and less than 10 is denoted as B)”. Also, on HRAS wild-type protein (setting [8]), the “HRAS /KRAS” value was “C (A compound having a KD ratio of 0.1 or more and less than 3 is denoted as C)”. The same compound returned an IC50 in test [2] of 8.2 nM.

On to `CCO[C@@H]1C[C@H]2C(=O)NC3(CCC3)C(=O)N(C)[C@@H](C3CCCC3)C(=O)N(CCC3CCCC3)[C@H](C(=O)N(C)C)CC(=O)N(C)[C@@H](CC)C(=O)N[C@@H]([C@@H](C)CC)C(=O)N(C)CC(=O)N(C)[C@H]3CCCCCN(C3=O)[C@@H](Cc3ccc(C(F)(F)F)cc3)C(=O)N(C)CC(=O)N[C@@H](CCc3cc(F)c(C(F)(F)F)c(F)c3)C(=O)N2C1` [PP0636], for which, in test [1] (setting [7]), the “NRAS /KRAS” value is “A (a compound having 10 or more and less than 20 is denoted as A)”. In addition, on HRAS wild-type protein (setting [8]), the “HRAS /KRAS” value is “A (a compound having 10 or more and less than 20 is denoted as A)”. The compound further showed an IC50 in test [2] of 729 nM.

On to `CCCN1C(=O)[C@@H]2CCN2C(=O)CN(C)C(=O)[C@H]([C@@H](C)CC)NC(=O)[C@H](CC(C)C)N(C)C(=O)C[C@@H](C(=O)N2CCOCC2)NC(=O)[C@H](C2CCCC2)N(C)C(=O)C2(CCCC2)NC(=O)[C@@H]2C[C@@H](OCC)CN2C(=O)[C@H](CCc2ccc(C(F)(F)F)c(Cl)c2)NC(=O)CN(C)C(=O)[C@@H]1Cc1ccc(C(F)(F)F)cc1` [PP0353] ([NMeL]I[Sar][Aze][NPrPhe(4-CF3)][Sar][hPhe(3-Cl-4-CF3)][Hyp](Et)[Ac5c][NMeGly(cPent)]D-Morpholide; lactam N-11), for which the “NRAS /KRAS” value in test [1] (setting [5]) is “C (A compound having a KD ratio of 0.1 or more and less than 3 is denoted as C)”. In addition, on HRAS wild-type protein (setting [6]), the “HRAS /KRAS” value is “B (a compound having 3 or more and less than 10 is denoted as B)”. Also, the IC50 in test [2] was 46.7 nM.

As for `CCCN1C(=O)CN(C)C(=O)CN(C)C(=O)[C@H]([C@@H](C)CC)NC(=O)[C@H](C2CCC2)N(C)C(=O)C[C@@H](C(=O)N2CCOCC2)N(C)C(=O)[C@H](C2CCCC2)N(C)C(=O)C2(CCCC2)NC(=O)[C@@H]2CC(F)(F)CN2C(=O)[C@H](CCc2ccc(C(F)(F)F)c(Cl)c2)NC(=O)CN(C)C(=O)[C@@H]1Cc1ccc(C(F)(F)F)cc1` [PP0200] ([NMeGly(cBu)]I[Sar][Sar][NPrPhe(4-CF3)][Sar][hPhe(3-Cl-4-CF3)][Pro(4,4-F2)][Ac5c][NMeGly(cPent)][NMeD]-Morpholide; lactam N-11), the “NRAS /KRAS” value in test [1] (setting [5]) is “C (A compound having a KD ratio of 0.1 or more and less than 3 is denoted as C)”. In addition, the “HRAS /KRAS” value at HRAS wild-type protein (setting [6]) was “C (A compound having a KD ratio of 0.1 or more and less than 3 is denoted as C)”. The compound also came in with an IC50 in test [2] of 2.5 nM.

For `CC[C@H](C)[C@@H]1NC(=O)[C@H](CC)N(C)C(=O)C[C@@H](C(=O)N(C)C)N(CC)C(=O)[C@H](C2CCCC2)N(C)C(=O)C2(CCC2)NC(=O)[C@@H]2CCCCN2C(=O)[C@H](CCc2cc(F)c(C(F)(F)F)c(F)c2)NC(=O)CN(C)C(=O)[C@H](Cc2ccc(C(F)(F)F)cc2)N2CCCC[C@@H](C2=O)N(C)C(=O)CN(C)C1=O` [PP0661], the “NRAS /KRAS” value in test [1] (setting [7]) is “C (A compound having a KD ratio of 0.1 or more and less than 3 is denoted as C)”. The “HRAS /KRAS” value on HRAS wild-type protein (setting [8]) is “B (a compound having 3 or more and less than 10 is denoted as B)”. The IC50 in test [2] stood at 56.6 nM.
